Results: PubChem BioAssay AID330 (DTP/NCI, 2004)
Several values for one entry are separate records, joined by “and”; a condition that tells them apart may be missing. Equal values may be shown once. Inconclusive results and toxic doses are left out. Rule for the calls: active = survival T/C of 150% or more; inactive = T/C below 125% in these data. Peptide text beside a SMILES is read from it. * marks the point of attachment. For = O=C*

Test system: P388 leukemia ip, CD2F1 mice, survival T/C
Assay: NCI In Vivo Anticancer Drug Screen. Data for tumor model P388 Leukemia (intraperitoneal) in CD2F1 (CDF1) mice
Conditions: endpoint: median survival time, higher = longer survival
In short: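 Mice carrying the transplanted tumor received test compound or vehicle. Survival was recorded in each group, and the value is the treated-group measurement divided by that of the vehicle-treated control group.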

[1] = dose: 25.0 mg/kg/injection, schedule: Q01DX009 (ip), vehicle: saline with Tween-80
[2] = dose: 50.0 mg/kg/injection, schedule: Q01DX009 (ip), vehicle: saline with Tween-80
[3] = dose: 100.0 mg/kg/injection, schedule: Q01DX009 (ip), vehicle: saline with Tween-80
[4] = dose: 50.0 mg/kg/injection, schedule: Q01DX009 (ip), vehicle: Klucel (hydroxypropylcellulose) (HPC)
[5] = dose: 100.0 mg/kg/injection, schedule: Q01DX009 (ip), vehicle: Klucel (hydroxypropylcellulose) (HPC)
[6] = dose: 200.0 mg/kg/injection, schedule: Q01DX009 (ip), vehicle: Klucel (hydroxypropylcellulose) (HPC)
[7] = dose: 60.0 mg/kg/injection, schedule: Q01DX005 (ip), vehicle: saline with Tween-80
[8] = dose: 120.0 mg/kg/injection, schedule: Q01DX005 (ip), vehicle: saline with Tween-80
[9] = dose: 50.0 mg/kg/injection, schedule: Q01DX005 (ip), vehicle: Klucel (hydroxypropylcellulose) (HPC)
[10] = dose: 100.0 mg/kg/injection, schedule: Q01DX005 (ip), vehicle: Klucel (hydroxypropylcellulose) (HPC)
[11] = dose: 200.0 mg/kg/injection, schedule: Q01DX005 (ip), vehicle: Klucel (hydroxypropylcellulose) (HPC)
[12] = dose: 50.0 mg/kg/injection, schedule: Q01DX009 (ip), vehicle: saline
[13] = dose: 100.0 mg/kg/injection, schedule: Q01DX009 (ip), vehicle: saline
[14] = dose: 200.0 mg/kg/injection, schedule: Q01DX009 (ip), vehicle: saline
[15] = dose: 100.0 mg/kg/injection, schedule: Q01DX001 (ip), vehicle: saline with Tween-80
[16] = dose: 200.0 mg/kg/injection, schedule: Q01DX001 (ip), vehicle: saline with Tween-80
[17] = dose: 60.0 mg/kg/injection, schedule: Q01DX005 (ip), vehicle: Klucel (hydroxypropylcellulose) (HPC)
[18] = dose: 25.0 mg/kg/injection, schedule: Q01DX009 (ip), vehicle: saline
[19] = dose: 120.0 mg/kg/injection, schedule: Q01DX005 (ip), vehicle: Klucel (hydroxypropylcellulose) (HPC)
[20] = dose: 240.0 mg/kg/injection, schedule: Q01DX005 (ip), vehicle: Klucel (hydroxypropylcellulose) (HPC)
[21] = dose: 50.0 mg/kg/injection, schedule: Q01DX005 (ip), vehicle: saline with Tween-80
[22] = dose: 100.0 mg/kg/injection, schedule: Q01DX005 (ip), vehicle: saline with Tween-80
[23] = dose: 200.0 mg/kg/injection, schedule: Q01DX005 (ip), vehicle: saline with Tween-80

Measured: T/C

CC(C)C(NC=O)C(=O)NCC(=O)NC(CO)C(=O)NC(CCC(=O)O)C(=O)O (centres undefined) (For-VGSE-OH; configuration not given here)
inactive: dose: 9.0 mg/kg/injection, schedule: Q01DX005 (ip), vehicle: water 110 % of control | dose: 18.0 mg/kg/injection, schedule: Q01DX005 (ip), vehicle: water 101 % of control | dose: 36.0 mg/kg/injection, schedule: Q01DX005 (ip), vehicle: water 110 % of control | dose: 72.0 mg/kg/injection, schedule: Q01DX005 (ip), vehicle: water 110 % of control | dose: 144.0 mg/kg/injection, schedule: Q01DX005 (ip), vehicle: water 106 % of control

O=c1[nH]c2ccccc2nc1Cl
inactive: [1] 100 % of control | [2] 98 % of control | [3] 97 % of control

CC(C)CC(NP(=S)(c1ccccc1)c1ccccc1)C(=O)O (centres undefined)
inactive: [4] 111 % of control | [5] 105 % of control | [6] 108 % of control

CC1=C(Br)S(=O)(=O)N(c2ccccc2)C(CBr)=C1Br
inactive: [7] 100 % of control | [8] 91 % of control | dose: 240.0 mg/kg/injection, schedule: Q01DX005 (ip), vehicle: saline with Tween-80 93 % of control

CC1=C(C)[C@]2(C)C(C)[C@]13Cn1c(=O)n(-c4ccccc4)c(=O)n1[C@@]32C (some centres undefined)
inactive: [9] 95 % of control | [10] 94 % of control | [11] 100 % of control

CCOP(=O)(O)SP(=O)(O)OCC.CCOP(=O)(O)SP(=O)(O)OCC.[Co]
inactive: dose: 50.0 mg/kg/injection, schedule: Q01DX001 (ip), vehicle: saline 105 % of control | dose: 100.0 mg/kg/injection, schedule: Q01DX001 (ip), vehicle: saline 104 % of control and 111 % of control

NC(CSCCCCl)C(=O)O (centres undefined)
inactive: [12] 95 % of control | [13] 95 % of control | [14] 97 % of control

c1ccc(-c2cc(CNc3nc4ccccc4s3)on2)cc1
inactive: [4] 99 % of control | [5] 99 % of control | [6] 99 % of control

CCC(=O)NCC(CN(C)C)(c1ccccc1)c1ccccc1
inactive: [15] 112 % of control | [16] 100 % of control

COc1c2occc2c(CCl)c2ccc(=O)oc12
inactive: dose: 15.0 mg/kg/injection, schedule: Q01DX005 (ip), vehicle: Klucel (hydroxypropylcellulose) (HPC) 115 % of control | dose: 30.0 mg/kg/injection, schedule: Q01DX005 (ip), vehicle: Klucel (hydroxypropylcellulose) (HPC) 111 % of control | [17] 111 % of control and 116 % of control

C[N+]1(C)Cc2ccccc2C1
inactive: dose: 12.5 mg/kg/injection, schedule: Q01DX009 (ip), vehicle: saline 105 % of control | [18] 108 % of control

CCOC(=O)C1=C(C(=O)c2cccc3ccccc23)C(c2ccc([N+](=O)[O-])cc2)C(C(=O)c2cccc3ccccc23)=C(C(=O)OCC)N1
inactive: [17] 87 % of control and 88 % of control | [19] 87 % of control | [20] 86 % of control and 95 % of control

O=C(/C=C/c1ccccc1)OCC1=C[C@@H](O)[C@@H]2C=CO[C@@H](OC3OC(CO)C(O)C(O)C3O)[C@H]12 (some centres undefined)
inactive: dose: 12.5 mg/kg/injection, schedule: Q01DX005 (ip), vehicle: Klucel (hydroxypropylcellulose) (HPC) 100 % of control | dose: 25.0 mg/kg/injection, schedule: Q01DX005 (ip), vehicle: Klucel (hydroxypropylcellulose) (HPC) 93 % of control | [9] 112 % of control | [10] 118 % of control | [11] 115 % of control

CC(C)=CCc1c2c(c(O)c3c(=O)c(-c4ccc(O)c(O)c4)coc13)C=CC(C)(C)O2
inactive: [1] 99 % of control | [2] 105 % of control | [3] 99 % of control | dose: 200.0 mg/kg/injection, schedule: Q01DX009 (ip), vehicle: saline with Tween-80 106 % of control

CC(=O)C(=Cc1ccc(C)cc1)C(C)=O
inactive: [21] 99 % of control | [22] 103 % of control | [23] 110 % of control

CC1=NN(C(=O)NS(=O)(=O)c2ccc(CCNC(=O)c3nccnc3N)cc2)CC1
inactive: [21] 96 % of control | [22] 105 % of control | [23] 105 % of control

CCOC(=O)C(=[N+]=[N-])C(=O)OCC12CCC=C1CC1(CC2)OCCO1 (centres undefined)
inactive: [21] 101 % of control | [22] 108 % of control | [23] 102 % of control

CCCCCC(CN(C)C)/C(CC(NO)c1ccccc1)=N\O (centres undefined)
inactive: [4] 106 % of control | [5] 106 % of control

CCCCC(CC)OC(=O)c1cccc(C(=O)O)c1 (centres undefined)
inactive: [15] 115 % of control | [16] 97 % of control

Cc1ccc2sc3ccccc3c(=O)c2c1
inactive: [12] 104 % of control | [13] 113 % of control | [14] 87 % of control

CC(=O)Nc1cc2cc(NC(=O)C(Cl)(Cl)Cl)ccc2oc1=O
inactive: [17] 98 % of control | [19] 100 % of control | [20] 100 % of control

CC(=O)Nc1ccc([Se](N)=O)cc1 (centres undefined)
inactive: [21] 89 % of control | [22] 103 % of control | [23] 111 % of control

CCC1CC2CN(CCc3c([nH]c4ccccc34)C(C(=O)OC)(c3cc4c(cc3OC)N(C)C3C(O)(C(=O)OC)C(OC(C)=O)C5(CC)C=CCN6CCC43C65)C2)C1 (centres undefined)
inactive: dose: 0.05 mg/kg/injection, schedule: Q01DX009 (ip), vehicle: Klucel (hydroxypropylcellulose) (HPC) 123 % of control | dose: 0.06 mg/kg/injection, schedule: Q01DX009 (ip), vehicle: water 124 % of control | dose: 4.0 mg/kg/injection, schedule: Q01DX009 (ip), vehicle: water 115 % of control
active: dose: 0.25 mg/kg/injection, schedule: Q04DX003 (ip), vehicle: water 150 % of control | dose: 0.4 mg/kg/injection, schedule: Q01DX009 (ip), vehicle: Klucel (hydroxypropylcellulose) (HPC) 169 % of control | dose: 0.5 mg/kg/injection, schedule: Q04DX003 (ip), vehicle: water 160 % of control | dose: 0.8 mg/kg/injection, schedule: Q01DX009 (ip), vehicle: Klucel (hydroxypropylcellulose) (HPC) 169 % of control | dose: 1.0 mg/kg/injection, schedule: Q04DX003 (ip), vehicle: water 223 % of control | dose: 2.0 mg/kg/injection, schedule: Q04DX003 (ip), vehicle: water 232 % of control

Cc1ccc(/C2=C(\c3ccc(C)cc3)N(c3ccccc3)CCCCN2c2ccccc2)cc1
inactive: dose: 100.0 mg/kg/injection, schedule: Q04DX002 (ip), vehicle: Klucel (hydroxypropylcellulose) (HPC) 99 % of control | dose: 200.0 mg/kg/injection, schedule: Q04DX002 (ip), vehicle: Klucel (hydroxypropylcellulose) (HPC) 99 % of control | dose: 400.0 mg/kg/injection, schedule: Q04DX002 (ip), vehicle: Klucel (hydroxypropylcellulose) (HPC) 99 % of control

C=COC(=O)N(C)C
inactive: [18] 110 % of control | [12] 118 % of control | [13] 115 % of control | [14] 120 % of control

Cc1nc(C#N)c(=N)n(CCCO)c1-c1ccccc1
inactive: [7] 109 % of control | [8] 101 % of control

O/N=C1\CCC2CCCCC12 (centres undefined)
inactive: [9] 98 % of control | [10] 102 % of control | [11] 107 % of control

COC(=O)C12OCC34C(CC5C(C)=C(O)C(=O)CC5(C)C3C(O)C1O)OC(=O)C(OC(=O)C=C(C)C)C24 (centres undefined) (tested in a mixture with another compound)
inactive: dose: 0.03 mg/kg/injection, schedule: Q01DX009 (ip), vehicle: saline + alcohol 106 % of control | dose: 0.06 mg/kg/injection, schedule: Q01DX009 (ip), vehicle: saline + alcohol 113 % of control | dose: 0.13 mg/kg/injection, schedule: Q01DX009 (ip), vehicle: saline + alcohol 107 % of control | dose: 0.25 mg/kg/injection, schedule: Q01DX009 (ip), vehicle: saline + alcohol 98 % of control | dose: 0.5 mg/kg/injection, schedule: Q01DX009 (ip), vehicle: saline + alcohol 94 % of control | dose: 1.0 mg/kg/injection, schedule: Q01DX009 (ip), vehicle: saline + alcohol 106 % of control | dose: 2.0 mg/kg/injection, schedule: Q01DX009 (ip), vehicle: saline + alcohol 94 % of control
